Ends that are not written are not given here.
System: juvenile hormone III synthesis by corpora allata
Assay: in vitro radiochemical assay for inhibition of juvenile hormone III synthesis and release by corpora allata
Assay type: cell-based, Diploptera punctata
Conditions: for IC50: inhibition of juvenile hormone synthesis and release, two hour in vitro radiochemical assay, corpora allata from ten day old pregnant females, read-out: Bioactivity as I.C.50 (Day 10 Donors)
Procedure: This assay for inhibition of JH synthesis is conducted as described by G. E. Pratt and J. R. Finney, in Crop Protection Agents: their biological evaluation, N. R. McFarlane, Ed. (Academic Press, New York, 1976)) except it is modified by the use of rapid partition instead of thin layer chromatography to isolate the newly synthesized JH and also modified by a reduction of incubation time to two hours.
Biological activities are determined for all RP18.cndot.HPLC fractions. […] Juvenile hormone III is synthesized de novo from acetyl-CoA through the classical isoprenoid pathway to farnesyl pyrophosphate (D. A. Schooley and F. C. Baker, in Comprehensive Insect Physiology, Biochemistry and Pharmacology, G. A. Kerkut and L. I. Gilbert, Eds. (Pergamon, Oxford, 1985) Vol. 7, pp. 363-389) and the enzymatic conversion of […] to JH can be stimulated in vitro by exogenous 2E,6E […] (Aldrich, Milwaukee, Wis.) which presumably alleviates a limitation in the biosynthetic flux (R. Feyereisen, J. Koener, S. S. Tobe, in Juvenile Hormone Biochemistry, G. E. Pratt and G. T. Brooks, Eds. (Elsevier, Amsterdam, 1981), pp. 81-92). […] The target of this allatostatin is therefore located early in the biosynthetic pathway. Juvenile hormone synthesis is determined at the end of two hours in these assays and bioactivity is measured as the ability of the peptide to inhibit biosynthesis of the JHIII. The peptide yields as determined from sequence analysis correspond to approximately 35 fmole/brain-complex. This is approximately one third the yield of the smaller known allatostatins (see G. E. Pratt et al. Biochem. & Biophys. Res. Commun. 163:1243 (1989) and A. P. Woodhead et al. Prod. Natl. Acad. Sci. 86:5997 (1989).
The inhibition of JH III synthesis and release by corpora allata (CA) from ten day old pregnant females is measured by an in vitro radiochemical assay. The three hour assay for inhibitors of JH synthesis (G. E. Pratt and J. R. Finney, in Crop Protection Agents: their biological evaluation, N. R. McFarlane, Ed. (Academic Press, New York, 1976) pp. 113-132) is modified by the use of rapid partition instead of thin layer chromatography to isolate the newly synthesized JH III (R. Feyereisen and S. S. Tobe, Anal. Biochem. 111: 372 (1981)) and modified by a reduction of incubation time to two hours. In each assay, run in seven replicates, one pair of CA was incubated with 50 μM (methyl-^3 H) methionine and putative inhibitor in 0.1 mL of TC199 containing 2% Ficoll, 0.1% bovine serum albumin and 0.03% bacitracin. The test glands show maximum sensitivity to the allatostatic action of brain extracts. R. Feyereisen and D. E. Farnsworth, Insect Biochem. 17,939 (1987); S. M. Rankin and B. Stay, J. Insec. Physiol. 33, 551 (1987).

Row | IC50 [nM] | Substance | inhibition of JH III biosynthesis in dose-response assays in the presence of farnesol (in the presence of 200 μM farnesol, JH synthesis determined at the end of two hours) | biological activity in the in vitro assay (inhibition of JH synthesis) (in vitro radiochemical assay, corpora allata)
1 | 0.3 | AYSYVSEYKRLPVYNFGL-NH2 [AYSYVSEYKRLPVYNFGL-NH2] | totally ineffective | biologically active
2 | 1.5 | Ac-AYSYVSEYKRLPVYNFGL-NH2 [acetyl-AYSYVSEYKRLPVYNFGL-NH2] | – | –
3 | 30 | Ac-RLPVYNFGL-NH2 [acetyl-RLPVYNFGL-NH2] | – | –
4 | 50 | LPVYNFGL-NH2 [LPVYNFGL-NH2] | – | –
5 | 118 | LRVYNFGL-NH2 [LRVYNFGL-NH2] | – | –
6 | 270 | RLPVYNFGL-NH2 [RLPVYNFGL-NH2] | – | –
